US20230085307A1, “PYRIDAZINONE COMPOUND AND HERBICIDE” (NISSAN CHEMICAL CORPORATION, priority 2019, published 2023)

Key:
[1] = tested on: Japanese bulrush; assay: Test Example 1: herbicidal activity, application before weed generation under submerged conditions (Table 16, symbol B); type: in vivo, Japanese bulrush (Schoenoplectus juncoides); settings: amount of applied herbicide 320 g/ha
Procedure, shortened: (§1)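 Emulsion formulation, water-diluted to set dose, was put onto the flooded surface (4 cm depth, alluvial soil) the same day weeds were sown and 2.5-leaf rice transplanted. After 3 weeks at 25-30 °C under glass, each species was rated 0 (≤5% kill) to 5 (≥90% kill).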

[2] = tested on: oval-leafed pondweed; assay: Test Example 1: herbicidal activity, application before weed generation under submerged conditions (Table 16, symbol C); type: in vivo, oval-leafed pondweed (Monochoria vaginalis); settings: amount of applied herbicide 320 g/ha
Procedure, shortened: as §1

[3] = tested on: late watergrass; assay: Test Example 2: herbicidal activity, application during weed generation under submerged conditions (Table 17, symbol A); type: in vivo, late watergrass (Echinochloa oryzicola); settings: for herbicidal effect rating, A: late watergrass: AAH 320 g/ha, application during weed generation, submerged conditions
Procedure, shortened: (§2)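 Mixed weed seedlings in alluvial soil under a 4 cm water layer, greenhouse-grown at 25–30° C. Compound given as a diluted emulsion into the floodwater at the 1–2 leaf stage; response graded after three weeks.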

[4] = tested on: Japanese bulrush; assay: Test Example 2: herbicidal activity, application during weed generation under submerged conditions (Table 17, symbol B); type: in vivo, Japanese bulrush (Schoenoplectus juncoides); settings: for herbicidal effect rating, B: Japanese bulrush: AAH 320 g/ha, application during weed generation, submerged conditions
Procedure, shortened: as §2

[5] = tested on: barnyard grass; assay: Test Example 3: herbicidal effect by foliage application, Wagner pot (Table 18, symbol H); type: in vivo, barnyard grass (Echinochloa crus-galli); settings: for herbicidal effect on barnyard grass (H): 320 g/ha
Procedure, shortened: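 Plants were sown in alluvial soil held under 0.1–0.5 cm standing water and grown 14 days in a greenhouse at 25–30 °C. An emulsifiable formulation, water-diluted to the set dose, was then sprayed onto the foliage, and effects were scored three weeks later using previously defined criteria.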

[6] = tested on: southern crabgrass; assay: Test Example 4: herbicidal effect by soil treatment (Table 19, symbol F); type: in vivo, southern crabgrass (Digitaria ciliaris); settings: amount of applied herbicide 320 g/ha
Procedure, shortened: (§3)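 Soil-surface application: an emulsion agent diluted with water to the predetermined dose is sprayed uniformly over seeds lying under roughly 1.5 cm of sterilized diluvial soil. Boxes stay in a greenhouse at 25° C. to 30° C. Three weeks later, each species is graded on previously defined criteria.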

[7] = tested on: barnyard grass; assay: Test Example 4: herbicidal effect by soil treatment (Table 19, symbol H); type: in vivo, barnyard grass (Echinochloa crus-galli); settings: amount of applied herbicide 320 g/ha
Procedure, shortened: as §3

[8] = tested on: blackgrass; assay: Test Example 4: herbicidal effect by soil treatment (Table 19, symbol J); type: in vivo, blackgrass (Alopecurus myosuroides); settings: amount of applied herbicide 320 g/ha
Procedure, shortened: as §3

[9] = tested on: redroot pigweed; assay: Test Example 4: herbicidal effect by soil treatment (Table 19, symbol N); type: in vivo, redroot pigweed (Amaranthus retroflexus); settings: amount of applied herbicide 320 g/ha
Procedure, shortened: as §3

[10] = tested on: chickweed; assay: Test Example 4: herbicidal effect by soil treatment (Table 19, symbol P); type: in vivo, common chickweed (Stellaria media); settings: amount of applied herbicide 320 g/ha
Procedure, shortened: as §3

[11] = tested on: southern crabgrass; assay: Test Example 5: herbicidal effect by foliage application, plastic box (Table 20, symbol F); type: in vivo, southern crabgrass (Digitaria ciliaris); settings: 320 g/ha; for F: southern crabgrass, herbicidal effect grade: three weeks after application
Procedure, shortened: (§4)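 Sow seeds spot-wise in sterilized diluvial soil; cover with ~1.5 cm soil. Grow 14 days in greenhouse, 25° C. to 30° C. Spray foliage with emulsion diluted to predetermined amount. Rate effect after 3 weeks.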

[12] = tested on: green foxtail; assay: Test Example 5: herbicidal effect by foliage application, plastic box (Table 20, symbol G); type: in vivo, green foxtail (Setaria viridis); settings: 320 g/ha; for G: green foxtail, herbicidal effect grade: three weeks after application
Procedure, shortened: as §4

[13] = tested on: wild oat; assay: Test Example 5: herbicidal effect by foliage application, plastic box (Table 20, symbol I); type: in vivo, wild oat (Avena fatua); settings: 320 g/ha; for I: wild oat, herbicidal effect grade: three weeks after application
Procedure, shortened: as §4

[14] = tested on: blackgrass; assay: Test Example 5: herbicidal effect by foliage application, plastic box (Table 20, symbol J); type: in vivo, blackgrass (Alopecurus myosuroides); settings: 320 g/ha; for J: blackgrass, herbicidal effect grade: three weeks after application
Procedure, shortened: as §4

[15] = tested on: redroot pigweed; assay: Test Example 5: herbicidal effect by foliage application, plastic box (Table 20, symbol N); type: in vivo, redroot pigweed (Amaranthus retroflexus); settings: 320 g/ha; for N: redroot pigweed, herbicidal effect grade: three weeks after application
Procedure, shortened: as §4

[16] = tested on: lambsquarters; assay: Test Example 5: herbicidal effect by foliage application, plastic box (Table 20, symbol O); type: in vivo, lambsquarters (Chenopodium album); settings: 320 g/ha; for O: lambsquarters, herbicidal effect grade: three weeks after application
Procedure, shortened: as §4

[17] = tested on: persian speedwell; assay: Test Example 5: herbicidal effect by foliage application, plastic box (Table 20, symbol R); type: in vivo, Persian speedwell (Veronica persica); settings: 320 g/ha; for R: persian speedwell, herbicidal effect grade: three weeks after application
Procedure, shortened: as §4

[18] = application during weed generation under submerged conditions, amount of applied herbicide 320 g/ha
[19] = amount of applied herbicide 320 g/ha
[20] = foliage application, evaluated 3 weeks after application
[21] = foliage application after 14-day growth, evaluated three weeks after application

CCCCCOc1ccc2c(-c3c(O)c(C)nn(C)c3=O)c(-c3ccccc3OC)sc2c1 [3-108]
Herbicidal effect, B: Japanese bulrush [1]: 3 (Herbicidal rate of 40% or more and less than 70%) | Herbicidal effect, C: oval-leafed pondweed [2]: 5 (Herbicidal rate of 90% or more (almost completely withered)) | herbicidal effect rating, A: late watergrass [3]: 2 (Herbicidal rate of 20% or more and less than 40%) | herbicidal effect rating, B: Japanese bulrush [4]: 2 (Herbicidal rate of 20% or more and less than 40%) | herbicidal effect on barnyard grass (H) [5]: 3 (Herbicidal rate of 40% or more and less than 70%) | F: southern crabgrass, herbicidal effect grade [6]: 0 (Herbicidal rate of 5% or less (almost no effect)) | H: barnyard grass, herbicidal effect grade [7]: 0 (Herbicidal rate of 5% or less (almost no effect)) | J: blackgrass, herbicidal effect grade [8]: 0 (Herbicidal rate of 5% or less (almost no effect)) | N: redroot pigweed, herbicidal effect grade [9]: 4 (Herbicidal rate of 70% or more and less than 90%) | P: chickweed, herbicidal effect grade [10]: 0 (Herbicidal rate of 5% or less (almost no effect)) | F: southern crabgrass, herbicidal effect grade ([11]; foliage application): 0 (Herbicidal rate of 5% or less (almost no effect)) | G: green foxtail, herbicidal effect grade ([12]; foliage application): 3 (Herbicidal rate of 40% or more and less than 70%) | I: wild oat, herbicidal effect grade ([13]; foliage application): 0 (Herbicidal rate of 5% or less (almost no effect)) | J: blackgrass, herbicidal effect grade ([14]; foliage application): 0 (Herbicidal rate of 5% or less (almost no effect)) | N: redroot pigweed, herbicidal effect grade ([15]; foliage application): 5 (Herbicidal rate of 90% or more (almost completely withered)) | O: lambsquarters, herbicidal effect grade ([16]; foliage application): 4 (Herbicidal rate of 70% or more and less than 90%) | R: persian speedwell, herbicidal effect grade ([17]; foliage application): 4 (Herbicidal rate of 70% or more and less than 90%)

Cc1ccc2oc(-c3ccc(OCC(C)C)cc3)c(-c3c(O)c(C)nn(C)c3=O)c2c1 [9-051]
Herbicidal effect, B: Japanese bulrush [1]: 5 (Herbicidal rate of 90% or more (almost completely withered)) | Herbicidal effect, C: oval-leafed pondweed [2]: 5 (Herbicidal rate of 90% or more (almost completely withered)) | herbicidal effect grade, A: late watergrass [3, 18]: 5 (Herbicidal rate of 90% or more (almost completely withered)) | herbicidal effect grade, B: Japanese bulrush [4, 18]: 4 (Herbicidal rate of 70% or more and less than 90%) | Herbicidal effect on H (barnyard grass), foliage application [5, 19]: 5 (Herbicidal rate of 90% or more (almost completely withered)) | F: southern crabgrass, herbicidal effect grade [6]: 1 (Herbicidal rate of 5% or more and less than 20%) | H: barnyard grass, herbicidal effect grade [7]: 4 (Herbicidal rate of 70% or more and less than 90%) | J: blackgrass, herbicidal effect grade [8]: 5 (Herbicidal rate of 90% or more (almost completely withered)) | N: redroot pigweed, herbicidal effect grade [9]: 5 (Herbicidal rate of 90% or more (almost completely withered)) | P: chickweed, herbicidal effect grade [10]: 5 (Herbicidal rate of 90% or more (almost completely withered)) | F (southern crabgrass) herbicidal effect grade [11, 20]: 5 (Herbicidal rate of 90% or more (almost completely withered)) | G (green foxtail) herbicidal effect grade [12, 20]: 5 (Herbicidal rate of 90% or more (almost completely withered)) | I (wild oat) herbicidal effect grade [13, 20]: 1 (Herbicidal rate of 5% or more and less than 20%) | J (blackgrass) herbicidal effect grade [14, 20]: 5 (Herbicidal rate of 90% or more (almost completely withered)) | N (redroot pigweed) herbicidal effect grade [15, 20]: 5 (Herbicidal rate of 90% or more (almost completely withered)) | O (lambsquarters) herbicidal effect grade [16, 20]: 5 (Herbicidal rate of 90% or more (almost completely withered)) | R (persian speedwell) herbicidal effect grade [17, 20]: 5 (Herbicidal rate of 90% or more (almost completely withered))

CCOc1cc(F)ccc1-c1sc2cc(F)ccc2c1-c1c(O)c(C)nn(C)c1=O [3-011]
Herbicidal effect, B: Japanese bulrush [1]: 4 (Herbicidal rate of 70% or more and less than 90%) | Herbicidal effect, C: oval-leafed pondweed [2]: 3 (Herbicidal rate of 40% or more and less than 70%) | herbicidal effect rating, A: late watergrass [3]: 3 (Herbicidal rate of 40% or more and less than 70%) | herbicidal effect rating, B: Japanese bulrush [4]: 3 (Herbicidal rate of 40% or more and less than 70%) | herbicidal effect on H: barnyard grass [5, 19]: 5 (Herbicidal rate of 90% or more (almost completely withered)) | herbicidal effect, F: southern crabgrass [6]: 5 (Herbicidal rate of 90% or more (almost completely withered)) | herbicidal effect, H: barnyard grass [7]: 5 (Herbicidal rate of 90% or more (almost completely withered)) | herbicidal effect, J: blackgrass [8]: 5 (Herbicidal rate of 90% or more (almost completely withered)) | herbicidal effect, N: redroot pigweed [9]: 5 (Herbicidal rate of 90% or more (almost completely withered)) | herbicidal effect, P: chickweed [10]: 4 (Herbicidal rate of 70% or more and less than 90%) | F: southern crabgrass, herbicidal effect grade ([11]; foliage application): 5 (Herbicidal rate of 90% or more (almost completely withered)) | G: green foxtail, herbicidal effect grade ([12]; foliage application): 5 (Herbicidal rate of 90% or more (almost completely withered)) | I: wild oat, herbicidal effect grade ([13]; foliage application): 5 (Herbicidal rate of 90% or more (almost completely withered)) | J: blackgrass, herbicidal effect grade ([14]; foliage application): 5 (Herbicidal rate of 90% or more (almost completely withered)) | N: redroot pigweed, herbicidal effect grade ([15]; foliage application): 5 (Herbicidal rate of 90% or more (almost completely withered)) | O: lambsquarters, herbicidal effect grade ([16]; foliage application): 5 (Herbicidal rate of 90% or more (almost completely withered)) | R: persian speedwell, herbicidal effect grade ([17]; foliage application): 5 (Herbicidal rate of 90% or more (almost completely withered))

CCCC(=O)Oc1c(C)nn(C)c(=O)c1-c1c(-c2ccc(OC(F)(F)F)cc2)sc2cc(F)ccc12 [3-144]
Herbicidal effect, B: Japanese bulrush [1]: 3 (Herbicidal rate of 40% or more and less than 70%) | Herbicidal effect, C: oval-leafed pondweed [2]: 0 (Herbicidal rate of 5% or less (almost no effect)) | herbicidal effect rating, A: late watergrass [3]: 2 (Herbicidal rate of 20% or more and less than 40%) | herbicidal effect rating, B: Japanese bulrush [4]: 3 (Herbicidal rate of 40% or more and less than 70%) | herbicidal effect on barnyard grass (H) [5]: 5 (Herbicidal rate of 90% or more (almost completely withered)) | Herbicidal effect by soil treatment, F: southern crabgrass [6]: 1 (Herbicidal rate of 5% or more and less than 20%) | Herbicidal effect by soil treatment, H: barnyard grass [7]: 3 (Herbicidal rate of 40% or more and less than 70%) | Herbicidal effect by soil treatment, J: blackgrass [8]: 0 (Herbicidal rate of 5% or less (almost no effect)) | Herbicidal effect by soil treatment, N: redroot pigweed [9]: 4 (Herbicidal rate of 70% or more and less than 90%) | Herbicidal effect by soil treatment, P: chickweed [10]: 0 (Herbicidal rate of 5% or less (almost no effect)) | herbicidal effect on F: southern crabgrass (evaluation grade 0-5) [11, 21]: 1 (Herbicidal rate of 5% or more and less than 20%) | herbicidal effect on G: green foxtail (evaluation grade 0-5) [12, 21]: 5 (Herbicidal rate of 90% or more (almost completely withered)) | herbicidal effect on I: wild oat (evaluation grade 0-5) [13, 21]: 0 (Herbicidal rate of 5% or less (almost no effect)) | herbicidal effect on J: blackgrass (evaluation grade 0-5) [14, 21]: 0 (Herbicidal rate of 5% or less (almost no effect)) | herbicidal effect on N: redroot pigweed (evaluation grade 0-5) [15, 21]: 5 (Herbicidal rate of 90% or more (almost completely withered)) | herbicidal effect on O: lambsquarters (evaluation grade 0-5) [16, 21]: 5 (Herbicidal rate of 90% or more (almost completely withered)) | herbicidal effect on R: persian speedwell (evaluation grade 0-5) [17, 21]: 5 (Herbicidal rate of 90% or more (almost completely withered))
